Measurements as given in US10603289B2, “Process for the manufacture of ajoene derivatives” (DANMARKS TEKNISKE UNIVERSITET, priority 2010, dated 2020).

Tests used:
P. aeruginosa PAO1 = type: in vivo; conditions: day three post-infection; E:Z 1:4 (FIG. 8)
Protocol: Mice were sacrificed on day one or day three post-infection and the contents of bacteria in the lungs were determined. Open squares indicate bacterial lung content per lung for each individual mouse. The median values are indicated with a filled black square. The statistic significance of difference in clearance was tested by a Mann-Whitney U test (analysis of nonparametric data) and p-values for the difference at day one and day three were 0.9 and 0.002 respectively.
In this study ajoene was administered prophylactic and subsequently continued after infection. Injections were given subcutaneous in the peritoneum. We performed three individual in vivo treatment experiments with ajoene in the mouse model of pulmonary infection using the P. aeruginosa PAO1. BALB/c mice were intracheally challenged (at day 0) with alginate beads containing 1.5×10^8 CFU/ml P. aeruginosa. The two groups of mice were either untreated (placebo) or treated with ajoene 25 μg/g mouse once a day. The mice were given two days of prophylactic treatment or placebo prior to bacterial challenge. Treatment was continued for three days. […] When combining the experiments a significant difference on day three was seen (p<0.002) with a 500 fold difference in clearance between the groups (FIG. 7). This is concordant with the results obtained by Bjarnsholt et al (2005) in a similar lung infection model in with raw garlic extract was used as treatment [T. Bjarnsholt et al., Microbiology, 2005, 151, p. 3873-3880].
This highlights that a synthesis providing a sufficiently pure “crude” ajoene product is essential in order to avoid the use of HPLC purification, as this step has a detrimental effect on biological activity. […] (E,Z) ajoene having an E:Z ratio of 1:4 was used.

[1] = test system: biofilms of P. aeruginosa PAO1; assay: In vitro flow cell biofilm killing, live dead stains and CSLM; type: cell-based
Protocol: Dead cells are stained with the DNA stain PI (Dark grey/black). The biofilm were visualized with CSLM. C) Implant model treated with ajoene and tobramycin.
3873-3880]. It was however unknown what was the active ingredient in the garlic extract. Thus. biofilms of P. aeruginosa strain were either grown in the presence or absence of 100 μg/ml ajoene. At day three the biofilms were treated with 10 μg/ml tobramycin for 24 hours. […] 10 μg/ml tobramycin was therefore chosen for the present study.

wild-type P. aeruginosa = assay: Foreign-body (silicone tube implant) infection model; type: in vivo, mice; conditions: CFU per implant 72 hours after insertion
Protocol: To examine the effect of a combination treatment with ajoene and tobramycin in vivo we used an foreign-body infection model [L. D. Christensen et al., Microbiology, 2007, 153, p. 2312-2320]. Silicone tube implants with a size of 4 mm (inner diameter 4 mm/outer diameter 6 mm) pre-colonized with wild-type P. aeruginosa, were inserted into the peritoneal cavity of mice. Treatments were injected subcutaneously every 24 hours, where ajoene and tobramycin treatment were initiated two days pre-insertion and 24 hours post-insertion, respectively. 72 hours after insertion the implants were removed from the mice and the number of colony-forming units per implant was determined. […] (E,Z) ajoene having an E:Z ratio of 1:4 was used.

| Structure (SMILES) | clearing the pulmonary infection, by ajoene purity (P. aeruginosa PAO1) | extent of killing, comparison of tobramycin concentrations ([1]; prior treatment study, 10 μg/ml, 100 μg/ml or 340 μg/ml) | killing of the biofilm bacteria, single agent ([1]; tobramycin or ajoene only) | clearing of implants, single treatment versus placebo group (wild-type P. aeruginosa) |
| --- | --- | --- | --- | --- |
| C=CCSSC=CC[S+]([O-])CC=C (centres unmarked) [95-99.5% purity ajoene] | effective at clearing the pulmonary infection |  |  |  |
| NC[C@H]1O[C@H](O[C@H]2[C@H](O)[C@@H](O[C@H]3O[C@H](CO)[C@@H](O)[C@H](N)[C@H]3O)[C@H](N)C[C@@H]2N)[C@H](N)C[C@@H]1O [tobramycin] |  | no difference in the extent of killing | no or only minor killing | significant difference in clearing |
| C=CCSSC=CC[S+]([O-])CC=C (centres unmarked) [very high purity ajoene] | not effective at clearing the pulmonary infection |  |  |  |
